Assay results reported in ChEMBL document CHEMBL1201862, “PubChem BioAssay data set” (2004).
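How tested: cells in 96-well plates exposed to compound for 48 hours at five concentrations. GI50 marks 50% less growth.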 The source made the active and inactive calls. Cut-off read from the data, not from the text of the source: active = GI50 up to about 1.1 µM and inactive = higher.

Experiments:
Assay in all cases: NCI anticancer screen, dose series, 48 h
UO-31 = system: UO-31
HOP-62 = system: HOP-62
EKVX = system: EKVX
MDA-MB-435 = system: MDA-MB-435
HT-29 = system: HT-29
SF-295 = system: SF-295
A549 = system: A549
SK-OV-3 = system: SK-OV-3
UACC-257 = system: UACC-257
UACC-62 = system: UACC-62
HOP-92 = system: HOP-92
MDA-N = system: MDA-N
OVCAR-4 = system: OVCAR-4
SF-268 = system: SF-268
SK-MEL-5 = system: SK-MEL-5
HL-60 = system: HL-60
K562 = system: K562
RPMI-8226 = system: RPMI-8226
T47D = system: T47D

Measured: GI50

CC1(C)CC(=O)C2=C(C1)NC(=S)C(C#N)C2c1ccccc1 (configuration not stated)
inactive: UO-31 > 100 µM | HOP-62 > 100 µM | EKVX > 100 µM | MDA-MB-435 > 100 µM | HT-29 > 100 µM | SF-295 > 100 µM | A549 > 100 µM | SK-OV-3 > 100 µM | UACC-257 > 100 µM | UACC-62 > 100 µM | HOP-92 > 100 µM | MDA-N > 100 µM | OVCAR-4 > 100 µM | SF-268 > 100 µM | SK-MEL-5 > 100 µM | HL-60 > 100 µM | K562 75.9 µM

CN(C)S(=O)(=O)Nc1nnc(S(N)(=O)=O)s1
inactive: UO-31 > 100 µM | HOP-62 > 100 µM | EKVX > 100 µM | MDA-MB-435 > 100 µM | HT-29 > 100 µM | SF-295 > 100 µM | A549 > 100 µM | SK-OV-3 > 100 µM | UACC-62 > 100 µM | HOP-92 > 100 µM | OVCAR-4 > 100 µM | SF-268 > 100 µM | SK-MEL-5 > 100 µM | HL-60 > 100 µM | K562 > 100 µM | RPMI-8226 > 100 µM | T47D 64.3 µM

CC1CC[C@@]2(OC1)OC1C[C@H]3[C@@H]4CC=C5CC(OC6OC(CO)C(OC7OC(CO)C(O)C(OC8OCC(O)C(O)C8O)C7OC7OC(CO)C(O)C(O)C7O)C(O)C6O)CCC5(C)[C@H]4CCC3(C)C1[C@@H]2C (some centres not stated)
inactive: HOP-62 4.09 µM | EKVX 4.67 µM | MDA-MB-435 5.78 µM | HT-29 5.08 µM | SF-295 7.11 µM | A549 4.38 µM | SK-OV-3 6.55 µM | UACC-257 6.47 µM | UACC-62 21.7 µM | HOP-92 > 25 µM | OVCAR-4 6.58 µM | SF-268 4.84 µM | SK-MEL-5 4.67 µM | HL-60 4.9 µM | K562 7.23 µM | RPMI-8226 6.81 µM | T47D 5.71 µM

COC(=O)CCc1c(Cc2ccc[nH]2)[nH]c(C(=O)OCc2ccccc2)c1C
inactive: HOP-62 19.5 µM | EKVX 29.6 µM | MDA-MB-435 18.3 µM | HT-29 20.4 µM | SF-295 24.6 µM | A549 33.4 µM | SK-OV-3 > 100 µM | UACC-257 18.4 µM | UACC-62 26.4 µM | HOP-92 23 µM | MDA-N 18 µM | OVCAR-4 11.9 µM | SF-268 23.2 µM | SK-MEL-5 15.8 µM | K562 25.5 µM | RPMI-8226 39.6 µM

O=C(Cn1c2c(c3ccccc31)CCCC2)N1CCCCC1
inactive: UO-31 > 100 µM | HOP-62 > 100 µM | EKVX > 100 µM | MDA-MB-435 > 100 µM | HT-29 > 100 µM | SF-295 > 100 µM | A549 > 100 µM | SK-OV-3 > 100 µM | UACC-257 > 100 µM | UACC-62 > 100 µM | HOP-92 > 100 µM | MDA-N > 100 µM | OVCAR-4 > 100 µM | SK-MEL-5 > 100 µM | HL-60 > 100 µM | RPMI-8226 > 100 µM

CNC(C)(C)Cc1ccc(Cl)cc1
inactive: HOP-62 > 100 µM | EKVX > 100 µM | HT-29 > 100 µM | SF-295 > 100 µM | A549 > 100 µM | SK-OV-3 > 100 µM | UACC-257 > 100 µM | UACC-62 > 100 µM | OVCAR-4 > 100 µM | SF-268 > 100 µM | SK-MEL-5 > 100 µM | K562 > 100 µM | RPMI-8226 > 100 µM

Nc1ncnc2c1ncn2Cc1cccc(CCl)c1
inactive: UO-31 16.5 µM | HOP-62 12.7 µM | EKVX 19.3 µM | MDA-MB-435 19.1 µM | HT-29 22.8 µM | SF-295 15.9 µM | A549 21.8 µM | UACC-257 14.8 µM | UACC-62 12.8 µM | HOP-92 19.7 µM | OVCAR-4 20.3 µM | SF-268 14.7 µM | SK-MEL-5 16.1 µM | HL-60 15 µM | K562 21.9 µM | RPMI-8226 5.38 µM

CSc1nc2c(nc(N)n2C2OC(COC(C)=O)C(OC(C)=O)C(OC(C)=O)C2OC(C)=O)c(=O)n1C (configuration not stated)
inactive: UO-31 > 100 µM | HOP-62 > 100 µM | EKVX > 100 µM | HT-29 > 100 µM | SF-295 > 100 µM | A549 > 100 µM | SK-OV-3 > 100 µM | UACC-257 > 100 µM | UACC-62 > 100 µM | HOP-92 > 100 µM | OVCAR-4 > 100 µM | SK-MEL-5 > 100 µM | HL-60 > 100 µM | K562 > 100 µM | RPMI-8226 > 100 µM

COC(=O)C12C(=O)CC3CCC1C32C(=O)OC (configuration not stated)
inactive: UO-31 > 100 µM | HOP-62 > 100 µM | EKVX > 100 µM | MDA-MB-435 > 100 µM | HT-29 > 100 µM | SF-295 > 100 µM | A549 > 100 µM | SK-OV-3 > 100 µM | UACC-257 > 100 µM | UACC-62 > 100 µM | MDA-N > 100 µM | OVCAR-4 > 100 µM | SF-268 > 100 µM | SK-MEL-5 > 100 µM | K562 > 100 µM | RPMI-8226 > 100 µM

CC(=O)OC(Cn1cncn1)(Cn1cncn1)c1ccc(Cl)cc1Cl
inactive: UO-31 > 100 µM | HOP-62 > 100 µM | EKVX > 100 µM | MDA-MB-435 > 100 µM | HT-29 > 100 µM | SF-295 > 100 µM | A549 > 100 µM | SK-OV-3 > 100 µM | UACC-257 > 100 µM | HOP-92 > 100 µM | OVCAR-4 > 100 µM | SF-268 > 100 µM | SK-MEL-5 > 100 µM | HL-60 > 100 µM | K562 > 100 µM | RPMI-8226 > 100 µM | T47D > 100 µM

Cc1ccc(/N=N/c2c(C)nn(-c3ccccc3)c2-c2ccccc2)c(Br)c1
inactive: UO-31 > 100 µM | HOP-62 > 100 µM | EKVX > 100 µM | HT-29 27.6 µM | SF-295 86.5 µM | A549 > 100 µM | SK-OV-3 > 100 µM | UACC-257 79.8 µM | UACC-62 40 µM | HOP-92 40 µM | OVCAR-4 > 100 µM | SF-268 > 100 µM | HL-60 4.3 µM | K562 25.4 µM

O=S(=O)(O)C1CCC(O)C2NCCCC21 (configuration not stated)
inactive: UO-31 > 100 µM | HOP-62 > 100 µM | EKVX > 100 µM | MDA-MB-435 > 100 µM | HT-29 > 100 µM | SF-295 > 100 µM | A549 > 100 µM | SK-OV-3 > 100 µM | UACC-257 > 100 µM | UACC-62 > 100 µM | HOP-92 > 100 µM | OVCAR-4 > 100 µM | SF-268 > 100 µM | SK-MEL-5 > 100 µM | HL-60 20.7 µM | K562 > 100 µM | RPMI-8226 > 100 µM | T47D > 100 µM
